Several values for one entry are separate records, joined by “and”; a condition that tells them apart may be missing. Equal values may be shown once.
How the values were obtained:
[1] = UV absorption spectrum in ethanol; format: physicochemical
Method: 2,4,6-Tris(diethyl 4′-aminobenzalmalonate)-s-triazine (1 g, […]) (Example 1 of Application EP 0,507,691) is dissolved in 5 ml of trimethylsilylethyl alcohol while sparging with nitrogen. The mixture is subsequently heated at reflux for 25 hours with 0.2 g of para-toluenesulphonic acid. After addition of 30 ml of dichloromethane, the organic phase is washed with water and then with an aqueous sodium bicarbonate solution, and dried. It is concentrated under reduced pressure. The residue obtained is purified by chromatography on a silica column (eluent: heptane/AcOEt 85/15). 0.35 g (Yield 32%) of the derivative of Example 2 is collected in the form of a pale yellow gum: • UV (ethanol) λ max=355 nm; ε max=125 250;E1%=965. […]

[2] = Photostability of a film of 5% solution in Miglyol 812 under Oriel solar simulator, HPLC quantification; format: physicochemical; details: 5% by weight in Miglyol 812, 1 mg/cm^2 film, irradiated one hour, solar simulator UV-A=14.2 mW/cm^2, UV-B=0.41 mW/cm^2
Method: The two products were dissolved at 5% by weight in the oil Miglyol 812. Approximately 10 mg of oily solution are spread over 10 cm^2 at the surface of a hollow disc of frosted glass; the amount is determined by weighing.
The films of the oily solutions are irradiated for one hour using an Oriel solar simulator (UV-A=14.2 mW/cm^2; UV-B=0.41 mW/cm^2), then extracted with 10 ml of ethanol comprising 10% of isopropanol and subjected to ultrasound for 5 min. The products are quantified by HPLC of the extracts.
HPLC conditions: column: UP5WOD-25QS, 250×4.6 mm, 5 μm, Interchrom; eluent: methanol (Comparative Example 1) and 96% of methanol+4% of water (Example 1); flow rate: 1 ml/min; volume injected: 10 μl; detection: diode array; rt (min): 5.2 (Comparative Example 1) and 13.8 (Example 1).
The degrees of loss are determined by comparison of the amounts of product present in the irradiated samples and in the non-irradiated controls prepared simultaneously and treated in the same way (means over 3 samples; S=surface/mg solution): % loss=100×(So−Sirr)/So

Row | % of disappearance (% loss) [2] | Compound | E1% [1] | ε max [1] | λ max [1] [nm]
1 |  | 2,4,6-tris(di(trimethylsilylmethyl) 4′-aminobenzalmalonate)-s-triazine [Example 1] | 987 | 118 970 | 355
2 | 11% and 10% and 9% | CC(C)COC(=O)C(=Cc1ccc(Nc2nc(Nc3ccc(C=C(C(=O)OCC(C)C)C(=O)OCC(C)C)cc3)nc(Nc3ccc(C=C(C(=O)OCC(C)C)C(=O)OCC(C)C)cc3)n2)cc1)C(=O)OCC(C)C [Compound (prior art), 2,4,6-Tris(diisobutyl 4′-aminobenzalmalonate)-s-triazine] |  |  | 
3 |  | C[Si](C)(C)CCOC(=O)C(=Cc1ccc(Nc2nc(Nc3ccc(C=C(C(=O)OCC[Si](C)(C)C)C(=O)OCC[Si](C)(C)C)cc3)nc(Nc3ccc(C=C(C(=O)OCC[Si](C)(C)C)C(=O)OCC[Si](C)(C)C)cc3)n2)cc1)C(=O)OCC[Si](C)(C)C [Example 2, 2,4,6-tris(di(trimethylsilylethyl) 4′-aminobenzalmalonate)-s-triazine] | 965 | 125 250 | 355

Source: patent US8221728B2, “Silanic para-aminobenzalmalonate-substituted s-triazine compounds and photoprotective compositions comprised thereof” (L'Oreal, priority 2004, dated 2012)
